The test system of data set [1] is Mus musculus. The experiment in a line: Antidiabetic activity in STZ induced male Balb/c mouse model assessed as amelioration of abnormal nephron cell morphology at 10 mg/kg, po treated for 21 days. The data set is classed as functional, organism-based. Particulars: time 21.0 day.
Data set [2] relates to Mus musculus. The data set is described as follows: Antidiabetic activity in STZ induced male Balb/c mouse model assessed as amelioration of endocytic vacuole content at 10 mg/kg, po treated for 21 days. Particulars: time 21.0 day. The data set is classed as functional, organism-based.
Data set [3] concerns Mus musculus. The experiment in a line: Antidiabetic activity in STZ induced male Balb/c mouse model assessed as amelioration of glomerular necrosis at 10 mg/kg, po treated for 21 days. The format is functional, organism-based. The settings on record: time 21.0 day.
Data set [4] concerns Mus musculus. The experiment in a line: Antidiabetic activity in STZ induced male Balb/c mouse model assessed as amelioration of glomerular shrinkage at 10 mg/kg, po treated for 21 days. The format is functional, organism-based. Particulars: time 21.0 day.
For data set [5], the system named is Mus musculus. The experiment in a line: Antidiabetic activity in STZ induced male Balb/c mouse model assessed as amelioration of tubular necrosis at 10 mg/kg, po treated for 21 days. The data set is classed as functional, organism-based. Particulars: time 21.0 day.
Data set [6] has as its system Mus musculus. The experiment in a line: Antidiabetic activity in STZ induced male Balb/c mouse model assessed as amelioration of tubular degeneration at 10 mg/kg, po treated for 21 days. The format is functional, organism-based. The settings on record: time 21.0 day.
Data set [7] deals with Mus musculus. The experiment in a line: Antidiabetic activity in STZ induced male Balb/c mouse model assessed as ordered nephron cells with glomeruli at 63.81 ug/kg, ip treated for 21 days. The format is functional, organism-based. Particulars: dose 63.81 µg/kg, time 21.0 day.
Data set [8] has as its system Mus musculus. The experiment in a line: Antidiabetic activity in STZ induced male Balb/c mouse model assessed as reduction in bowman's space at 63.81 ug/kg, ip treated for 21 days. Particulars: dose 63.81 µg/kg, time 21.0 day. The data set is classed as functional, organism-based.
The test system of data set [9] is Mus musculus. The data set is described as follows: Antidiabetic activity in STZ induced male Balb/c mouse model assessed as reduction in glomerulus diameter at 63.81 ug/kg, ip treated for 21 days. The data set is classed as functional, organism-based. Particulars: dose 63.81 µg/kg, time 21.0 day.
Data set [10] deals with Mus musculus. The data set is described as follows: Antidiabetic activity in STZ induced male Balb/c mouse model assessed as appearance of tubule epithelium at 63.81 ug/kg, ip treated for 21 days. The format is functional, organism-based. The settings on record: dose 63.81 µg/kg, time 21.0 day.
Data set [11] addresses T1, Pancreatic alpha-amylase (Sus scrofa) (UniProt P00690).
T1 sequence (whole entry): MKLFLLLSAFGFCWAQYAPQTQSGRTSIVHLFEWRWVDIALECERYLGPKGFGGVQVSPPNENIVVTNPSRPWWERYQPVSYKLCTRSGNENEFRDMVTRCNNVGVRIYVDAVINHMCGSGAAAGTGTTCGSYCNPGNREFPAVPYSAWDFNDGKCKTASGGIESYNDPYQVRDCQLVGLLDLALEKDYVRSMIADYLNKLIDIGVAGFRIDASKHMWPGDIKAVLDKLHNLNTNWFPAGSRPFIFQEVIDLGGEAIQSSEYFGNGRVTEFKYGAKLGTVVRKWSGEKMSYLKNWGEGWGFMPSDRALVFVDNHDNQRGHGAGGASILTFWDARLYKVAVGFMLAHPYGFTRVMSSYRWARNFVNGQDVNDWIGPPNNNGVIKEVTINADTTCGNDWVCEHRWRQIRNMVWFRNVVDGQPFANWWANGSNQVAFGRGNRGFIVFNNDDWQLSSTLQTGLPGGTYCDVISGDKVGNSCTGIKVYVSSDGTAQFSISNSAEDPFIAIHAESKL
The data set is described as follows: Mixed type inhibition of porcine pancreatic Alpha-amylase using starch as substrate pre-incubated for 20 mins followed by substrate addition and measured after 15 mins by DNS reagent based absorbance assay. Particulars: time 35.0 min.

The subject of data set [12] is N=C(N)NCCC[C@H](N)C(=O)N[C@@H](Cc1c[nH]c2ccccc12)C(=O)N[C@@H](Cc1c[nH]c2ccccc12)C(=O)O. The data set is described as follows: Competitive inhibition of Alpha-glucosidase (unknown origin) using p-nitrophenyl-alpha-D-glucopyranoside as substrate assessed as Km pre-incubated for 10 mins followed by substrate addition and measured after 5 mins by Lineweaver-Burk plot analysis (reference value: 1.785 mM). The settings on record: Homo sapiens; time 15.0 min. The data set is classed as protein assay.

Data set [13] shares this test system. The data set is described as follows: Competitive inhibition of Alpha-glucosidase (unknown origin) using p-nitrophenyl-alpha-D-glucopyranoside as substrate assessed as maximum velocity pre-incubated for 10 mins followed by substrate addition and measured after 5 mins by Lineweaver-Burk plot analysis (reference value: 0.802). The data set is classed as protein assay. The settings on record: Homo sapiens; time 15.0 min.

Activity calls are given as the source filed them. The rule behind the calls is not given here. Residues, ends and D or L forms follow the SMILES beside them.

On to `CCC1=C(C)CN(C(=O)NCCc2ccc(S(=O)(=O)NC(=O)N[C@H]3CC[C@H](C)CC3)cc2)C1=O`, for which the outcome with Mus musculus [1], with Mus musculus [2], in the data set on Mus musculus [3], in the data set with Mus musculus [4], in the data set with Mus musculus [5] and with Mus musculus [6] was Active.

With `N=C(N)NCCC[C@H](N)C(=O)N[C@@H](Cc1c[nH]c2ccccc12)C(=O)N[C@@H](Cc1c[nH]c2ccccc12)C(=O)O` (H-Arg-Trp-Trp-OH), the outcome with Mus musculus [7], in the data set with Mus musculus [8], with Mus musculus [9] and in the data set with Mus musculus [10] was Active. The inhibition result in data set [11] is “Active”.

For “Alpha glucosidase (Homo sapiens) (from UniProt O43451+P10253+P14410+Q2M2H8)”, the Km in data set [12] was found to be 1370 µM. Besides, the Vmax in data set [13] came out at 0.7.
